Each block holds one compound with its values, some of them ahead of it. Calls of active or inactive are those of the source. No cut-off for these calls is given here.
Key:
[1] = Antiinvasive activity against mouse 26-L5 cells at 1 ug/ml; format: functional
Mus musculus [2] = species on record: Mus musculus; assay: Cytotoxicity against mouse 26-L5 cells at 10 ug/ml; format: functional, cell-based
[3] = Antiinvasive activity against mouse 26-L5 cells; format: functional, cell-based
Mus musculus [4] = species on record: Mus musculus; assay: Antiinvasive activity against mouse 26-L5 cells assessed as inhibition of cell migration; format: functional, cell-based

Structure (SMILES): O=C(OC[C@H]1O[C@H](O[C@H]2O[C@H](COC(=O)c3cccc(O)c3O)[C@@H](O)[C@H](O)[C@H]2O)[C@H](O)[C@@H](O)[C@@H]1O)c1cccc(O)c1O
Activity [1]: 40%

Structure (SMILES): O=C(OC[C@H]1O[C@H](O[C@H]2O[C@H](COC(=O)c3ccccc3)[C@@H](O)[C@H](O)[C@H]2O)[C@H](O)[C@@H](O)[C@@H]1O)c1ccccc1
Activity [1]: 51%

IC50 [3]: 390 nM
Structure (SMILES): Cc1cc(O)cc(O)c1C(=O)OC[C@H]1O[C@H](O[C@H]2O[C@H](COC(=O)c3c(C)cc(O)cc3O)[C@@H](O)[C@H](O)[C@H]2O)[C@H](O)[C@@H](O)[C@@H]1O [BRARTEMICIN]
Activity (Mus musculus [2]): Not toxic
Activity [1]: 59%
Activity (Mus musculus [4]): inactive

Structure (SMILES): O=C(OC[C@H]1O[C@H](O[C@H]2O[C@H](COC(=O)c3ccccc3O)[C@@H](O)[C@H](O)[C@H]2O)[C@H](O)[C@@H](O)[C@@H]1O)c1ccccc1O
Activity [1]: 35%

Source: ChEMBL document CHEMBL1151951, “Brartemicin, an inhibitor of tumor cell invasion from the actinomycete Nonomuraea sp” (J Nat Prod, 2009)
